Assay results taken from patent US6479435B1, “Diaryl ethers and processes for their preparation and herbicidal and desiccant compositions containing them” (ISK Americas Incorporated, priority 1997, dated 2002).

What was measured:
Format in all cases: in vivo
[1] = system: Johnsongrass (Sorghum halepense, SORHA); assay: Pre-emerge greenhouse herbicide test, phytotoxicity rating; settings: 14 days after application, rating scale 0-100
Method in brief: (§1)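 Seeds sown in sandy loam mix one day before track-sprayer application of compounds in acetone at 125–1000 g ai/ha (187 l/ha), then surface-watered to incorporate and bottom-watered. Visual rating 14 days after application on a 0–100 scale (0 = no damage, 100 = all plants dead).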

[2] = system: barnyardgrass (Echinochloa crusgalli, ECHCG); assay: as above; settings: 14 days after application, rating scale 0-100
Method in brief: as §1

[3] = system: common ragweed (Ambrosia artemisiifolia L., AMBEL); assay: as above; settings: 14 days after application, rating scale 0-100
Method in brief: as §1

[4] = system: green foxtail (Setaria viridis, SETVI); assay: as above; settings: 14 days after application, rating scale 0-100
Method in brief: as §1

[5] = system: ivyleaf morningglory (Ipomoea hederacea, IPOHE); assay: as above; settings: 14 days after application, rating scale 0-100
Method in brief: as §1

[6] = system: lambsquarters (Chenopodium album, CHEAL); assay: as above; settings: 14 days after application, rating scale 0-100
Method in brief: as §1

[7] = system: large crabgrass (Digitaria sanguinalis, DIGSA); assay: as above; settings: 14 days after application, rating scale 0-100
Method in brief: as §1

[8] = system: redroot pigweed (Amaranthus retroflexus, AMARE); assay: as above; settings: 14 days after application, rating scale 0-100
Method in brief: as §1

[9] = system: sicklepod (Cassia obtusifolia, CASOB); assay: as above; settings: 14 days after application, rating scale 0-100
Method in brief: as §1

[10] = system: velvetleaf (Abutilon theophrasti, ABUTH); assay: as above; settings: 14 days after application, rating scale 0-100
Method in brief: as §1

[11] = system: field corn (Zea mays L., var. Dekalb 535, CORN); assay: Pre-emerge greenhouse test, crop damage rating; settings: 14 days after application, rating scale 0-100
Method in brief: as §1

[12] = system: upland rice (Oryza sp., var.Tebonnet, RICE); assay: Pre-emerge greenhouse test, crop damage rating; settings: 14 days after application, rating scale 0-100
Method in brief: as §1

[13] = system: soybean (Glycine max L., var. Pella 86, SOY); assay: Pre-emerge greenhouse test, crop damage rating; parameters: key to SOY crop damage rating: 0 = no damage, 100 = complete death of all plants; settings: 14 days after application, rating scale 0-100
Method in brief: as §1

[14] = system: common ragweed (Ambrosia artemisiifolia L., AMBEL); assay: Post-emerge greenhouse herbicide test, phytotoxicity rating; settings: 14 days after application, scale 0-100
Method in brief: (§2)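 Compounds in acetone with 0.25% v/v non-ionic surfactant were track-sprayed at 187 l/ha over plants at the 2-3 leaf stage, at 63 to 1000 g ai/ha. Pots were bottom-watered. Injury was scored visually 14 days later on a 0-100 scale, where 0 is no damage and 100 is complete plant death.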

[15] = system: Johnsongrass (Sorghum halepense, SORHA); assay: as above; settings: 14 days after application, scale 0-100
Method in brief: as §2

[16] = system: barnyardgrass (Echinochloa crusgalli, ECHCG); assay: as above; settings: 14 days after application, scale 0-100
Method in brief: as §2

[17] = system: green foxtail (Setaria viridis, SETVI); assay: as above; settings: 14 days after application, scale 0-100
Method in brief: as §2

[18] = system: ivyleaf morningglory (Ipomoea hederacea, IPOHE); assay: as above; settings: 14 days after application, scale 0-100
Method in brief: as §2

[19] = system: lambsquarters (Chenopodium album, CHEAL); assay: as above; settings: 14 days after application, scale 0-100
Method in brief: as §2

[20] = system: large crabgrass (Digitaria sanguinalis, DIGSA); assay: as above; settings: 14 days after application, scale 0-100
Method in brief: as §2

[21] = system: redroot pigweed (Amaranthus retroflexus, AMARE); assay: as above; settings: 14 days after application, scale 0-100
Method in brief: as §2

[22] = system: sicklepod (Cassia obtusifolia, CASOB); assay: as above; settings: 14 days after application, scale 0-100
Method in brief: as §2

[23] = system: velvetleaf (Abutilon theophrasti, ABUTH); assay: as above; settings: 14 days after application, scale 0-100
Method in brief: as §2

[24] = system: field corn (Zea mays L., var. Dekalb 535, CORN); assay: Post-emerge greenhouse test, crop damage rating; settings: 14 days after application, scale 0-100
Method in brief: as §2

[25] = system: upland rice (Oryza sp., var.Tebonnet, RICE); assay: Post-emerge greenhouse test, crop damage rating; settings: 14 days after application, scale 0-100
Method in brief: as §2

[26] = system: soybean (Glycine max L., var. Pella 86, SOY); assay: Post-emerge greenhouse test, crop damage rating; parameters: key to crop damage rating SOY: 0-100 scale: 0 = no damage, 100 = complete death of all plants; settings: 14 days after application, scale 0-100
Method in brief: as §2

COc1cc(Oc2cc(-n3c(=O)n4n(c3=S)CCCC4)c(F)cc2Cl)nc(OC)n1 [Compound 8-32]
SORHA phytotoxicity rating ([1]; Rate 125 g al/ha): 10
SORHA phytotoxicity rating ([1]; Rate 500 g al/ha): 30
ECHCG phytotoxicity rating ([2]; Rate 125 g al/ha): 0
ECHCG phytotoxicity rating ([2]; Rate 500 g al/ha): 20
AMBEL phytotoxicity rating ([3]; Rate 125 g al/ha): 0
AMBEL phytotoxicity rating ([3]; Rate 500 g al/ha): 50
SETVI phytotoxicity rating ([4]; Rate 125 g al/ha): 10
SETVI phytotoxicity rating ([4]; Rate 500 g al/ha): 100
IPOHE phytotoxicity rating ([5]; Rate 125 g al/ha): 40
IPOHE phytotoxicity rating ([5]; Rate 500 g al/ha): 90
CHEAL phytotoxicity rating ([6]; Rate 125 g al/ha): 90
CHEAL phytotoxicity rating ([6]; Rate 500 g al/ha): 100
DIGSA phytotoxicity rating ([7]; Rate 125 g al/ha): 20
DIGSA phytotoxicity rating ([7]; Rate 500 g al/ha): 90
AMARE phytotoxicity rating ([8]; Rate 125 g al/ha): 50
AMARE phytotoxicity rating ([8]; Rate 500 g al/ha): 100
CASOB phytotoxicity rating ([9]; Rate 125 g al/ha): 30
CASOB phytotoxicity rating ([9]; Rate 500 g al/ha): 80
ABUTH phytotoxicity rating ([10]; Rate 125 g al/ha): 95
ABUTH phytotoxicity rating ([10]; Rate 500 g al/ha): 100
CORN crop damage rating ([11]; Rate 125 g al/ha): 0
CORN crop damage rating ([11]; Rate 500 g al/ha): 10
RICE crop damage rating ([12]; Rate 125 g al/ha): 0
RICE crop damage rating ([12]; Rate 500 g al/ha): 40
SOY crop damage rating ([13]; Rate 125 g al/ha): 0
SOY crop damage rating ([13]; Rate 500 g al/ha): 0
phytotoxicity rating AMBEL ([14]; rate 63 g ai/ha): 50
phytotoxicity rating AMBEL ([14]; rate 500 g ai/ha): 90
phytotoxicity rating SORHA ([15]; rate 63 g ai/ha): 0
phytotoxicity rating SORHA ([15]; rate 500 g ai/ha): 20
phytotoxicity rating ECHCG ([16]; rate 63 g ai/ha): 0
phytotoxicity rating ECHCG ([16]; rate 500 g ai/ha): 10
phytotoxicity rating SETVI ([17]; rate 63 g ai/ha): 10
phytotoxicity rating SETVI ([17]; rate 500 g ai/ha): 40
phytotoxicity rating IPOHE ([18]; rate 63 g ai/ha): 100
phytotoxicity rating IPOHE ([18]; rate 500 g ai/ha): 100
phytotoxicity rating CHEAL ([19]; rate 63 g ai/ha): 95
phytotoxicity rating CHEAL ([19]; rate 500 g ai/ha): 100
phytotoxicity rating DIGSA ([20]; rate 63 g ai/ha): 0
phytotoxicity rating DIGSA ([20]; rate 500 g ai/ha): 0
phytotoxicity rating AMARE ([21]; rate 63 g ai/ha): 90
phytotoxicity rating AMARE ([21]; rate 500 g ai/ha): 100
phytotoxicity rating CASOB ([22]; rate 63 g ai/ha): 10
phytotoxicity rating CASOB ([22]; rate 500 g ai/ha): 100
phytotoxicity rating ABUTH ([23]; rate 63 g ai/ha): 100
phytotoxicity rating ABUTH ([23]; rate 500 g ai/ha): 100
crop damage rating CORN ([24]; rate 63 g ai/ha): 5
crop damage rating CORN ([24]; rate 500 g ai/ha): 5
crop damage rating RICE ([25]; rate 63 g ai/ha): 0
crop damage rating RICE ([25]; rate 500 g ai/ha): 10
crop damage rating SOY ([26]; rate 63 g ai/ha): 30
crop damage rating SOY ([26]; rate 500 g ai/ha): 80

COc1cc(OC)nc(Oc2cc(-n3c(=O)n4n(c3=S)CCCC4)c(F)cc2Cl)n1 [Compound 8-33]
SORHA phytotoxicity rating ([1]; Rate 125 g al/ha): 0
SORHA phytotoxicity rating ([1]; Rate 500 g al/ha): 40
ECHCG phytotoxicity rating ([2]; Rate 125 g al/ha): 0
ECHCG phytotoxicity rating ([2]; Rate 500 g al/ha): 20
AMBEL phytotoxicity rating ([3]; Rate 125 g al/ha): 0
AMBEL phytotoxicity rating ([3]; Rate 500 g al/ha): 40
SETVI phytotoxicity rating ([4]; Rate 125 g al/ha): 80
SETVI phytotoxicity rating ([4]; Rate 500 g al/ha): 100
IPOHE phytotoxicity rating ([5]; Rate 125 g al/ha): 0
IPOHE phytotoxicity rating ([5]; Rate 500 g al/ha): 70
CHEAL phytotoxicity rating ([6]; Rate 125 g al/ha): 100
CHEAL phytotoxicity rating ([6]; Rate 500 g al/ha): 100
DIGSA phytotoxicity rating ([7]; Rate 125 g al/ha): 10
DIGSA phytotoxicity rating ([7]; Rate 500 g al/ha): 90
AMARE phytotoxicity rating ([8]; Rate 125 g al/ha): 100
AMARE phytotoxicity rating ([8]; Rate 500 g al/ha): 100
CASOB phytotoxicity rating ([9]; Rate 125 g al/ha): 40
CASOB phytotoxicity rating ([9]; Rate 500 g al/ha): 90
ABUTH phytotoxicity rating ([10]; Rate 125 g al/ha): 100
ABUTH phytotoxicity rating ([10]; Rate 500 g al/ha): 100
CORN crop damage rating ([11]; Rate 500 g al/ha): 0
RICE crop damage rating ([12]; Rate 500 g al/ha): 10
SOY crop damage rating ([13]; Rate 125 g al/ha): 0
SOY crop damage rating ([13]; Rate 500 g al/ha): 30
phytotoxicity rating AMBEL ([14]; rate 63 g ai/ha): 60
phytotoxicity rating AMBEL ([14]; rate 500 g ai/ha): 100
phytotoxicity rating SORHA ([15]; rate 63 g ai/ha): 10
phytotoxicity rating SORHA ([15]; rate 500 g ai/ha): 30
phytotoxicity rating ECHCG ([16]; rate 63 g ai/ha): 20
phytotoxicity rating ECHCG ([16]; rate 500 g ai/ha): 40
phytotoxicity rating SETVI ([17]; rate 63 g ai/ha): 20
phytotoxicity rating SETVI ([17]; rate 500 g ai/ha): 80
phytotoxicity rating IPOHE ([18]; rate 63 g ai/ha): 90
phytotoxicity rating IPOHE ([18]; rate 500 g ai/ha): 100
phytotoxicity rating CHEAL ([19]; rate 63 g ai/ha): 90
phytotoxicity rating CHEAL ([19]; rate 500 g ai/ha): 100
phytotoxicity rating DIGSA ([20]; rate 63 g ai/ha): 0
phytotoxicity rating DIGSA ([20]; rate 500 g ai/ha): 50
phytotoxicity rating AMARE ([21]; rate 63 g ai/ha): 95
phytotoxicity rating AMARE ([21]; rate 500 g ai/ha): 100
phytotoxicity rating CASOB ([22]; rate 63 g ai/ha): 55
phytotoxicity rating CASOB ([22]; rate 500 g ai/ha): 95
phytotoxicity rating ABUTH ([23]; rate 63 g ai/ha): 100
phytotoxicity rating ABUTH ([23]; rate 500 g ai/ha): 100
crop damage rating CORN ([24]; rate 63 g ai/ha): 5
crop damage rating CORN ([24]; rate 500 g ai/ha): 15
crop damage rating RICE ([25]; rate 63 g ai/ha): 0
crop damage rating RICE ([25]; rate 500 g ai/ha): 10
crop damage rating SOY ([26]; rate 63 g ai/ha): 55
crop damage rating SOY ([26]; rate 500 g ai/ha): 70
